Test results from patent publication US5707985A, “Naphthyl-, quinolyl- and isoquinolyl- sulfonamide derivatives as cell adhesion modulators” (Tanabe Seiyaku Co. Ltd., priority 1995, dated 1998).
Like-named read-outs stand apart in the source and are kept apart here.

B1: soluble ICAM-1: soluble ICAM-1, specific inhibitor of rhinovirus infection (protein, UniProt P05362 28-480, looked up)
extracellular domain: QTSVSPSKVILPRGGSVLVTCSTSCDQPKLLGIETPLPKKELLLPGNNRKVYELSNVQEDSQPMCYSNCPDGQSTAKTFLTVYWTPERVELAPLPSWQPVGKNLTLRCQVEGGAPRANLTVVLLRGEKELKREPAVGEPAEVTTTVLVRRDHHGANFSCRTELDLRPQGLELFENTSAPYQLQTFVLPATPPQLVSPRVLEVDTQGTVVCSLDGLFPVSEAQVHLALGDQRLNPTVTYGNDSFSAKASVSVTAEDEGTQRLTCAVILGNQSQETLQTVTIYSFPAPNVILTKPEVSEGTEVTVKCEAHPRAKVTLNGVPAQPLGPRAQLLLKATPEDNGRSFSCSATLEVAGQLIHKNQTRELRVLYGPRLDERDCPGNWTWPENSQQTPMCQAWGNPLPELKCLKDGTFPLPIGESVTVTRDLEGTYLCRARSTQGEVTRKVTVNVLSPRYE
modifications: extracellular domain

What was measured:
[1] = target: T1, interaction between ICAM-1 and LFA-1 (Homo sapiens, UniProt P05107+P20701); experiment: Adhesion of JY cells to TNF-α stimulated human endothelial cells (JY-EC); assay type: cell-based; conditions: for IC50: JY cells on TNF-α stimulated human endothelial cells, 30 minutes at 37° C., read-out: JY-EC IC50 (concentration at which adhesion is inhibited to 50% of control level)
T1 construct: endogenous in cells; host or cells: JY (human B cell line) for LFA-1; TNF-alpha stimulated HUVEC (Clonetics) for ICAM-1
Text: In order to establish the pharmacological properties of the compounds of formula (I) as a method of treatment for immuno-inflammatory disease in a patient suffering therefrom--such diseases being for the most part, but not limited exclusively to, graft rejection, ischemia reperfusion, asthma/allergy, delayed type hypersensitivity and AIDS--an in vitro assay was used to determine the effect of the compounds of the present invention on β2 mediated adhesion. Because human endothelial cells (EC's) express low levels of ICAM-1 on their surface and stimulation with TNF-α increases its expression, adhesion of lymphocytes can be measured following the principal assay design as described below for the human B cell line JY.
A. Cell Adhesion to Stimulated Endothelial Cells
Human umbilical vein endothelial cells (HUVEC) were purchased from Clonetics (San Diego, Calif.) at passage number 2. The cells were growth on 0.5% porcine skin gelatin pre-coated flasks (Sigma, St. Louis, Mo.) in EGM-UV media (Clonetics, San Diego, Calif.) supplemented with 10% fetal bovine serum. Cells are re-fed every 2-3 days, reaching confluence by day 4 to 6. […] The endothelial cells are not used following passage 7. Endothelial cells are grown to confluency in 96-well micro-titer assay plate.
The human B cell line JY was cultured in RPMI media containing 10% fetal calf serum at 37° C. in a humidified CO2 atmosphere. JY cells are loaded with the fluorescent dye indicator BCECF as follows: JY cells are washed twice with HBSS and cells are then re-suspended in HBSS at 5×10^6 cells/ml; BCECF-AM (Molecular Probes), stock concentration=1 mg/ml in DMSO, is added to the JY cells to a final concentration of 2 μg/ml; cells are incubated in the dark at 37° C. for 30-45 minutes; washed twice with HBSS and used in the assay.
The compounds presented in this invention are typically dissolved in 2.5 mg HSA/ml DME at four times the assay concentration and pH adjusted with 7.5% Na bicarbonate as needed. A confluent monolayer of human EC's in microtiter plates is stimulated with 50 U/ml TNF-α for 20 hours, and on the next day washed twice with DMEM-HSA before use. The EC's may be fixed by treatment with 3% paraformaldehyde. The assay plate is placed on ice, and test compound is added to quadruplicate wells, then all wells received 2.5×10^5 labeled JY cells and an optional stimulus (e.g. phorbol ester). Plates are incubated for 30 minutes at 37° C. in a CO2 incubator. Plates are washed four times with 100 μl PBS/well and the fluorescence of the adherent cells is measured using a fluorescence reader. Fluorescence in each well is measured as Arbitrary Fluorescence Units and percent adhesion in the absence of peptide is adjusted to 100% and the percent adhesion in the presence of peptides is calculated. Inhibitory concentrations (IC50) are determined based on 100% adhesion of cells that were incubated in the absence of drugs. Stimulation of protein kinase C by phorbol esters such as […] (PMA) increases the observed adhesion approximately 5-fold. This PMA induced adhesion is 100% blocked by anti-LFA-1 or anti-CD18 antibodies and about 75-80% by anti-ICAM-1 antibodies, while it is unaffected by antibodies to Mac-1, α4 or control antibodies. Thus, this assay measures preferentially the interaction between ICAM-1 and LFA-1.

[2] = tested on: JY cells; experiment: Proliferation of JY cells (cytotoxicity evaluation); assay type: cell-based, human
Text: (§1) The activity in the assay was not due to cytotoxic activity of the compounds.

[3] = tested on: U937 cells; assay type: cell-based
Text: as §1

[4] = tested on: rhinovirus; conditions: Martin, S. D. et al.; cited from earlier work

T1 sequence (P20701 26-1170): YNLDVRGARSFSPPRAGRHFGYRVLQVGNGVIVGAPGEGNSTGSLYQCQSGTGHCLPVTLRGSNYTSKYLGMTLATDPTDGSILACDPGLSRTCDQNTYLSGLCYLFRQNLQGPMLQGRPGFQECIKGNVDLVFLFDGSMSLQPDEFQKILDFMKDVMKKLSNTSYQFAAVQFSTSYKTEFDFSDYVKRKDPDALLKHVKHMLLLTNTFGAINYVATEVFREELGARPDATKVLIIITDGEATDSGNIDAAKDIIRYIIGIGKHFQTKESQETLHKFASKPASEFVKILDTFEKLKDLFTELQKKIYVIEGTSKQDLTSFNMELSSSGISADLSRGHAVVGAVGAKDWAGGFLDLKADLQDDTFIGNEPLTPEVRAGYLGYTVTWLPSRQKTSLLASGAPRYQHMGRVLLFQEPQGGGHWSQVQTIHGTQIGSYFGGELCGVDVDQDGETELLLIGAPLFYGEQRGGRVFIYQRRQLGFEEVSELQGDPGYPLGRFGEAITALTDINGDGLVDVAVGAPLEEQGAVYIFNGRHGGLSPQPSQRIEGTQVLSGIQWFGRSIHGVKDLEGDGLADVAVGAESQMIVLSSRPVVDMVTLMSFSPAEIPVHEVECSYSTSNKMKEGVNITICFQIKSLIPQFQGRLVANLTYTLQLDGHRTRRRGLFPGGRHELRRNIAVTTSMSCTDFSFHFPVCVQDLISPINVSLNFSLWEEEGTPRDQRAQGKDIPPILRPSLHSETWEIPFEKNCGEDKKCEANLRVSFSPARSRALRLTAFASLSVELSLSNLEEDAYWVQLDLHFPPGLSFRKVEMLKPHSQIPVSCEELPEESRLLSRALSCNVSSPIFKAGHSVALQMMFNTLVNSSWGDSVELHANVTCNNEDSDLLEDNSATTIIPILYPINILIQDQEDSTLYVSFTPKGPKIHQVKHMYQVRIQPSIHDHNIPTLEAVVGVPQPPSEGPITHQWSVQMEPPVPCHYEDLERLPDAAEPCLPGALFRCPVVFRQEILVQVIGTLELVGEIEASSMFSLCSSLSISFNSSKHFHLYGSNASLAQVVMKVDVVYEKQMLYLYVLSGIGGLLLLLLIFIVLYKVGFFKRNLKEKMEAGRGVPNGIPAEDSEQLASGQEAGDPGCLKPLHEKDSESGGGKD
T1 sequence (P05107 23-769): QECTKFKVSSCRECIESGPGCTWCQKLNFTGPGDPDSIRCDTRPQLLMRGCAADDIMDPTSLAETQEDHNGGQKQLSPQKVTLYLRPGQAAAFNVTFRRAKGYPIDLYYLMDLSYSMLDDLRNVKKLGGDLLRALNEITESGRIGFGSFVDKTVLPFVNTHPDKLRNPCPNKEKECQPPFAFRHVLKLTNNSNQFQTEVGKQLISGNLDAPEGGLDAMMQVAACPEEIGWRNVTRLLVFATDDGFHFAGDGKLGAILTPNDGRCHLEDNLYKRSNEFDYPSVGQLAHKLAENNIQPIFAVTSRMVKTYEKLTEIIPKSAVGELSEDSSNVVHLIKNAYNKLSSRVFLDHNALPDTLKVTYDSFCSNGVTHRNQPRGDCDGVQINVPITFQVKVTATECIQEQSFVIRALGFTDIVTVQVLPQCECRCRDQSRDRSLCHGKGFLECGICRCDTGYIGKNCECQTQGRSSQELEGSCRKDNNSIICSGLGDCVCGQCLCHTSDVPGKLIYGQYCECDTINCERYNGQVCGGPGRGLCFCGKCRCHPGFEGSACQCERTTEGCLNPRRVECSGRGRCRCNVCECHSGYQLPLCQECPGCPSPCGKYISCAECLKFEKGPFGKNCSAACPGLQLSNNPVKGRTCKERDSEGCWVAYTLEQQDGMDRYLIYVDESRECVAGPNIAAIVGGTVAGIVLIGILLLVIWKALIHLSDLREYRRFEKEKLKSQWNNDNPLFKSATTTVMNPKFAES

| Molecule | IC50 [1] [µM] | further results |
| --- | --- | --- |
| CCCCCCCCCCCCCC(=O)O[C@@H]1[C@@H](C)[C@@]2(O)[C@@H](C=C(CO)C[C@]3(O)C(=O)C(C)=C[C@@H]23)[C@@H]2C(C)(C)[C@]12OC(C)=O [13,14-phorbol myristate acetate (PMA), 13,14-phorbol myristate acetate, reference compound] | – | increase of observed adhesion ([1]; stimulation of protein kinase C by PMA): approximately 5 fold |
| O=S(=O)(NC12CC3CC(CC(C3)C1)C2)c1ccc2c(Cl)cccc2c1 [Example 3, 1-(5-Chloro-2-naphthylsulfonyl)-1-aminoadamantane] | 3 | inhibition of proliferation of JY cells ([2]; at concentrations active in the adhesion assay, measured after 20 hours): did not inhibit the proliferation of JY cells; inhibition of proliferation of U937 cells [3]: did not inhibit the proliferation of JY cells or U937 cells |
| O=S(=O)(c1ccc2c(Cl)cccc2c1)N1CC2CCC(CC2)C1 [Example 5, 3-(5-Chloro-2-naphthylsulfonyl)-3-azabicyclo[3.2.2]nonane] | 0.5 | inhibition of proliferation of JY cells [2]: did not inhibit the proliferation of JY cells; inhibition of proliferation of U937 cells [3]: did not inhibit the proliferation of JY cells or U937 cells |
| CC(=O)Oc1cccc2cc(S(=O)(=O)NC34CC5CC(CC(C5)C3)C4)ccc12 [Example 15, 1-(5-Acetoxy-2-naphthylsulfonyl)-1-aminoadamantane] | 56 | – |
| O=S(=O)(c1ccc2c(Cl)cccc2c1)N1CC2CCC(C2)C1 [Example 17, 3-(5-Chloro-2-naphthylsulfonyl)-3-azabicyclo[3.2.1]-octane] | 15 | – |
| O=S(=O)(c1ccc2c(Cl)cccc2c1)N1CC2CC3CC(C2)CC1C3 [Example 18, 4-(5-Chloro-2-naphthylsulfonyl)-4-azahomoadamantane] | 0.25 | – |
| O=S(=O)(c1ccc2c(Cl)cccc2c1)N1CC2CC1CS2 (stereo not drawn) [Example 20, 5-(5-Chloro-2-naphthylsulfonyl-2-thia-5-azabicyclo-2.2.1]heptane] | 6 | – |
| O=S(=O)(c1ccc2c(Cl)cccc2c1)N1CC2CC1CO2 (stereo not drawn) [Example 21, 5-(5-Chloro-2-naphthylsulfonyl)-2-oxa-5-azabicyclo-[2.2.1]heptane] | 86 | – |
| O=C(O)C12CC3CC(CC(NS(=O)(=O)c4ccc5c(Cl)cccc5c4)(C3)C1)C2 [Example 24, 1-(5-Chloro-2-naphthylsulfonyl)-1-amino-3-adamantane-carboxylic acid] | 136 | – |
| O=S(=O)(c1ccc2ncccc2c1)N1CC2CCC(CC2)C1 [Example 29, 3-(6-Quinolinesulfonyl)-3-azabicyclo[3.2.2]nonane] | 8 | – |
| O=S(=O)(NC12CC3CC(CC(C3)C1)C2)c1ccc2ncccc2c1 [Example 30, 1-(6-Quinolinesulfonyl)-1-aminoadamantane] | 23 | – |
| O=S(=O)(c1ccc2ncccc2c1)N1CC2CC3CC(C2)CC1C3 [Example 31, 4-(6-Quinolinesulfonyl)-4-azahomoadamantane] | 5 | – |
| Nc1cccc2cc(S(=O)(=O)N3CC4CCC(CC4)C3)ccc12 [Example 35, 3-(5-Amino-2-naphthylsulfonyl)-3-azabicyclo[3.2.2]nonane] | 13.6 | – |
| COc1ccc(S(=O)(=O)N2CC3CCC(CC3)C2)c2ccccc12 [Example 44, 3-(4-Methoxy-1-naphthylsulfonyl)-3-azabicyclo[3.2.2]nonane] | 1.6 | – |
| O=S(=O)(c1cc(OCc2cccnc2)c2ccccc2c1)N1CC2CCC(CC2)C1 [Example 54, 3-[1-(3-Pyridinylmethoxy)-3-naphthylsulfonyl]-3-azabicyclo[3.2.2]nonane] | 4.4 | – |
| O=S(=O)(c1cc(OCc2cccnc2)c2ccccc2c1)N1CC2CC3CC(C2)CC1C3 [Example 55, 4-[1-(3-Pyridinylmethoxy)-3-naphthylsulfonyl]-4-azahomoadamantane] | 2.1 | – |
| B1 | – | inhibition of rhinovirus infection [4]: act as specific inhibitor of rhinovirus infection |
